The test system of assay [1] is trypsin. As to the kind of experiment: Inhibition of trypsin-induced cleavage of fluorescent casein, EnzChek protease assay (cations and salt forms, Examples 1 and 2). Format: biochemical. The procedure:
The inhibition of trypsin-induced cleavage of a fluorescent casein peptide was measured using the EnzChek™ protease assay kit, following manufacturer's instructions (EnzChek™ Protease Assay Kits Product Information, Revised; Molecular Probes, Eugene Oreg.). Briefly, test materials at different concentrations were prepared in 1×phosphate buffered saline (PBS, pH 7.4). Trypsin working solution (Sigma, St. Louis, Mo., unit/mL) was prepared in digestion buffer provided in the assay kit. Stock solution of BODIPY FL casein (trypsin substrate, mg/mL) was prepared by adding 0.2 mL to the substrate vials (provided in kit), and the final substrate working solution (10 microgram/mL) was prepared by dilution in digestion buffer (pH 7.8). […] Each experiment was performed in three replicates.

Assay [2] deals with T1, trypsin (Bos taurus, UniProt P00760).
T1 sequence (P00760 24-246): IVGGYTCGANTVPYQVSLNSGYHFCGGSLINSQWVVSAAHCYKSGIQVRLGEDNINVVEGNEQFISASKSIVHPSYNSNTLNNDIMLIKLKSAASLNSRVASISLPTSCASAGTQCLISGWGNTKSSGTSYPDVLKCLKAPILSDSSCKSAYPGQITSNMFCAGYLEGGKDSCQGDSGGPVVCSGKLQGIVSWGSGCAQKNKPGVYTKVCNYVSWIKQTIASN
To be noted: low concentrations, around 0.001 M; cited from earlier work.

Assay [3] deals with trypsin. As to the kind of experiment: EnzChek trypsin inhibition assay, zinc oxide/acid mixtures and zinc oxide containing formulations (Example 4). The note with it: for % trypsin inhibitory activity: Table 5. The assay is classed as biochemical. Here is the method: (§1) The objective of the following experiment was to determine whether and to what extent adding an acid to a formulation containing zinc oxide had on inhibition of trypsin activity in an in vitro assay. The inhibition of trypsin-induced cleavage of a fluorescent casein peptide was measured using the EnzChek™ protease assay kit, following manufacturer's instructions (EnzChek™ Protease Assay Kits Product Information, Revised; Molecular Probes, Eugene Oreg.). Briefly, mixtures of zinc oxide and acid at different concentrations were prepared in 1×PBS (pH 7.4) and their pH was recorded as listed in the Tables 5-8. Trypsin working solution (Sigma, St. Louis, Mo., unit/mL) was prepared in digestion buffer provided in the assay kit. Stock solution of BODIPY FL casein (trypsin substrate, mg/mL) was prepared by adding 0.2 mL to the substrate vials (provided in kit), and the final substrate working solution (10 microgram/mL) was prepared by dilution in digestion buffer (pH 7.8). Following incubation of the trypsin, with or without the test materials (50 μl), with the BODIPY fluorescent casein substrate, at room temperature for one hour, fluorescence was measured (excitation 485 nm/emission 530 nm) using a SpectraMax microtiter plate reader (Molecular Devices Corporation, Sunnyvale, Calif.) and Softmax Pro software (Molecular Devices Corporation). Each experiment was performed in three replicates.
For preparations, samples were diluted in 1×PBS at 1:10 ratio and subjected to centrifugation at 13,200 rpm for 1 min using Eppendorf Centrifuge (Model 5415D, Eppendorf AG, Hamburg, Germany) to remove the solid formulation ingredients. The supernatants (50 μl) were used for trypsin inhibitory activity analyses as described above. For preparations, samples were diluted in 10, or 20 or 40% ethanol and subjected to centrifugation at 13,200 rpm for 1 min using Eppendorf Centrifuge (Model 5415D, Eppendorf AG, Hamburg, Germany) to remove the solid formulation ingredients. The supernatants (50 μl) were used for trypsin inhibition assay. Possible effects of ethanol solution (10, 20 or 40% ethanol) on trypsin inhibition activity were tested in the same study and found no significant impact.

Assay [4] relates to trypsin. As to the kind of experiment: EnzChek trypsin inhibition assay, mixtures of talc with divalent cation salts (Example 3). To be noted: for With Talc trypsin inhibition activities (%): all tested materials at 0.1% (g/mL); for Hypothetically calculated additive value of salt and Talc: Table 4. Format: biochemical. The procedure:
as §1, with “a divalent cation” for “an acid”, “talc inhibited” for “a formulation containing zinc oxide had on inhibition of”, “Briefly, mixtures of zinc oxide and acid at different concentrations were prepared in 1×PBS (pH 7.4) and their pH was recorded as listed in the Tables 5-8.” left out, “materials,” for “materials (50 μl),”, “nm /emission” for “nm/emission”

With `O.O.[Cl][Cu][Cl]` [(II) chloride dihydrate], the “% trypsin inhibitory activity” value with trypsin [1] (Table 1, 0.01% (g/mL)) is 64.98%; in the assay with trypsin [1] (Table 1, 0.10% (g/mL)), 99.34%; with trypsin [1] (Table 1, 1% (g/mL)), 108.34%.

`CC(O)C(=O)[O-].CC(O)C(=O)[O-].[Zn+2]` (stereo not drawn) [Zinc lactate]: the “% trypsin inhibitory activity” value is recorded as 23.01% in the assay on trypsin [1] (Table 2, 0.01% weight (g/mL)); 36.36% in the assay with trypsin [1] (Table 2, 0.10% weight (g/mL)); 87.95% with trypsin [1] (Table 2, 1% weight (g/mL)).

For the compound `[Ag+]` [Ag+], at trypsin [2], the “inhibition of the esterase activity of trypsin” value (from here on “inhibition … of trypsin”) is reported as “inhibited”.

For `[Cl-].[Na+]` [Sodium chloride, reference compound], the “% trypsin inhibitory activity” value was −7.57% in the assay with trypsin [1] (Table 1, 0.01% (g/mL)); −4.15% with trypsin [1] (Table 1, 0.10% (g/mL)); 10.88% with trypsin [1] (Table 1, 1% (g/mL)).

`[Cl-].[Li+]` [Lithium chloride, reference compound]: the “% trypsin inhibitory activity” value with trypsin [1] (Table 1, 0.01% (g/mL)) is given as 8.71%; with trypsin [1] (Table 1, 0.10% (g/mL)), 7.56%; in the assay on trypsin [1] (Table 1, 1% (g/mL)), −0.56%.

`[O]=[Zn]` [ZnO, zinc oxide]: the “% trypsin inhibitory activity” value with trypsin [3] (0.1% ZnO with 0.01% acetic acid, pH 7.28) is given as 1.85 +/− 1.34%; in the assay with trypsin [3] (0.1% ZnO with 0.05% acetic acid, pH 6.03), 49.16 +/− 1.43%; with trypsin [3] (0.1% ZnO, no acetic acid, pH 7.61), −2.6 +/− 2.76%; with trypsin [3] (1% ZnO with 0.01% acetic acid, pH 7.85), 15.82 +/− 1.68%; in the assay with trypsin [3] (1% ZnO with 0.05% acetic acid, pH 6.08), 58.19 +/− 0.73%; with trypsin [3] (1% ZnO, no acetic acid, pH 8.07) it was 5.40 +/− 1.24%. Also, the “trypsin inhibitory activity (in words)” value in the assay on trypsin [3] (conclusion from Tables 5-8) was “minimal protease activity”.

Regarding `CC(=O)[O-].CC(=O)[O-].[Zn+2]` [Zinc acetate dihydrate], in the assay with trypsin [4] (Table 3, 0.1% (g/mL)), the “% synergistic activity relative to hypothetic additive value” was −15.70%. In the assay on trypsin [4] (Table 3), the “With Talc trypsin inhibition activities (%)” value amounted to 60.18%.

As for `[Cl-].[Cl-].[Mg+2]` [Magnesium chloride], the “With Talc trypsin inhibition activities (%)” value in the assay with trypsin [4] (Table 3) was 20.05%. Besides, the “Hypothetically calculated additive value of salt and Talc” value is on record as 12.44% in the assay with trypsin [4] (0.1% MgCl2, 1% Talc); 22.93% in the assay on trypsin [4] (0.5% MgCl2, 1% Talc); 25.55% with trypsin [4] (1% MgCl2, 1% Talc). Further, the “trypsin inhibitory activity (in words)” value with trypsin [4] (talc and magnesium chloride alone or combined) is on record as “moderate to low levels”.

As for `CC(=O)[O-].CC(=O)[O-].O.[Ca+2]` [Calcium acetate monohydrate], the “% synergistic activity relative to hypothetic additive value” in the assay with trypsin [4] (Table 3, 0.1% (g/mL)) worked out at 3.10%. For the same compound, in the assay on trypsin [4] (Table 3), the “With Talc trypsin inhibition activities (%)” value came out at 24.6%.

With `O.O.O.O.[Cl][Fe][Cl]` [Iron (II) chloride tetrahydrate], the “% trypsin inhibitory activity” value was −3.24% with trypsin [1] (Table 1, 0.01% (g/mL)); 64.84% with trypsin [1] (Table 1, 0.10% (g/mL)); 112.23% in the assay on trypsin [1] (Table 1, 1% (g/mL)). For the same compound, the “% synergistic activity relative to hypothetic additive value” in the assay with trypsin [4] (Table 3, 0.1% (g/mL)) was −12.35%. Also, the “With Talc trypsin inhibition activities (%)” value in the assay with trypsin [4] (Table 3) turned out to be 64.53%.

Regarding `O=[N+]([O-])[O-].[Ag+]` [Silver nitrate, reference compound], the “% trypsin inhibitory activity” value in the assay on trypsin [1] (Table 1, 0.01% (g/mL)) is given as −2.43%; in the assay with trypsin [1] (Table 1, 0.10% (g/mL)), 2.91%; in the assay on trypsin [1] (Table 1, 1% (g/mL)) it was 5.37%.

For the compound `CC(=O)[O-].CC(=O)[O-].O.O.O.O.[Mg+2]` [Magnesium acetate tetrahydrate], the “% trypsin inhibitory activity” value in the assay on trypsin [1] (Table 2, 0.10% weight (g/mL)) is given as −3.09%. Besides, in the assay on trypsin [4] (Table 3, 0.1% (g/mL)), the “Salt alone trypsin inhibition activities (%)” value turned out to be 0.83%. In the assay with trypsin [4] (Table 3), the “With Talc trypsin inhibition activities (%)” value was determined as 17.83%.

As to `[Cl-].[Cl-].[Sr+2]` [Strontium chloride], the “% trypsin inhibitory activity” value came to 6.51% with trypsin [1] (Table 1, 0.01% (g/mL)); 11.78% in the assay with trypsin [1] (Table 1, 0.10% (g/mL)); 47.05% in the assay with trypsin [1] (Table 1, 1% (g/mL)).

As for Zinc gluconate, the “% trypsin inhibitory activity” value is given as 25.33% in the assay with trypsin [1] (Table 2, 0.01% weight (g/mL)); 40.93% with trypsin [1] (Table 2, 0.10% weight (g/mL)); 85.52% in the assay on trypsin [1] (Table 2, 1% weight (g/mL)).

As to `CC(=O)O` [acetic acid], the “% trypsin inhibitory activity” value was −11.18 +/− 2.61% in the assay on trypsin [3] (no ZnO, 0.01% acetic acid, pH 6.84) and 25.81 +/− 2.13% in the assay on trypsin [3] (no ZnO, 0.05% acetic acid, pH 4.75).

With `[Ca+2].[Cl-].[Cl-]` [Calcium chloride], the “% synergistic activity relative to hypothetic additive value” in the assay with trypsin [4] (Table 3, 0.1% (g/mL)) is recorded as −0.26%. Also, the “With Talc trypsin inhibition activities (%)” value with trypsin [4] (Table 3) worked out at 26.43%.

As to `[Cu+2]` [Cu++], the “inhibition … of trypsin” value on trypsin [2] was “inhibited”.

In the case of `[Hg+2]` [Hg++], the “inhibition … of trypsin” value at trypsin [2] is “inhibited”.

With `[Cl-].[Cl-].[Zn+2]` [Zinc chloride], the “% trypsin inhibitory activity” value in the assay on trypsin [1] (Table 1, 0.01% (g/mL)) came out at 42.99%; in the assay on trypsin [1] (Table 1, 0.10% (g/mL)), 88.51%; in the assay on trypsin [1] (Table 1, 1% (g/mL)) it was 105.87%; in the assay on trypsin [1] (Table 2, 0.01% weight (g/mL)), 41.25%; with trypsin [1] (Table 2, 0.10% weight (g/mL)), 87.69%; with trypsin [1] (Table 2, 1% weight (g/mL)), 98.75%. Further, the “% synergistic activity relative to hypothetic additive value” in the assay on trypsin [4] (Table 3, 0.1% (g/mL)) is reported as −13.01%. The “With Talc trypsin inhibition activities (%)” value in the assay with trypsin [4] (Table 3) was found to be 77.96%.

The values above are taken from patent publication US20130004588A1, “DIVALENT CATION CONTAINING COMPOSITIONS AND METHODS FOR TREATING AND/OR PREVENTING ENZYMATIC IRRITATION” (priority 2011, published 2013).
